Assay results reported in patent publication US9757350B2, “Small molecule inhibitors of replication protein A that also act synergistically with cisplatin” (Indiana University Research and Technology Corp., priority 2010, dated 2017).
“Also recorded” adds a separate entry of the source.

Legend:
[1] = molecular target: T1, full-length heterotrimeric RPA (Homo sapiens, UniProt P27694); conditions: reference 9; cited from earlier work
T1 construct: Human full-length, un-tagged heterotrimeric RPA (RPA) was purified as previously describe; made in house
T1 sequence (P27694 whole entry): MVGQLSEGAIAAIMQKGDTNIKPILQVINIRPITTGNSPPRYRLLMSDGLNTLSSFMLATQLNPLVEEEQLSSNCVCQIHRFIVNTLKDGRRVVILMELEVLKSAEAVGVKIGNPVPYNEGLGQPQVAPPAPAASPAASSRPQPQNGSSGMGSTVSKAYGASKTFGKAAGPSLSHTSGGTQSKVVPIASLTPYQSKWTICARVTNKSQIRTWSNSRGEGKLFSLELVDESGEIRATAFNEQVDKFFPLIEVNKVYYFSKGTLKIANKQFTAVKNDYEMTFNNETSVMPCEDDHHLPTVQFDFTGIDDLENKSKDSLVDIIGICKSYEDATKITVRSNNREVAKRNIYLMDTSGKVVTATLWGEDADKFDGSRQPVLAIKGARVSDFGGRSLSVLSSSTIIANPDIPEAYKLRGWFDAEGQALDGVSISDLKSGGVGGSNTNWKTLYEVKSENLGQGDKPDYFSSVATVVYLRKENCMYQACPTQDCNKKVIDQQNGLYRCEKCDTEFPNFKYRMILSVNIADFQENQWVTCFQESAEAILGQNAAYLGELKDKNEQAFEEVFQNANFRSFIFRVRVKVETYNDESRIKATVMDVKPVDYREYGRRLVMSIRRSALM
T1 sequence (P15927 whole entry partner): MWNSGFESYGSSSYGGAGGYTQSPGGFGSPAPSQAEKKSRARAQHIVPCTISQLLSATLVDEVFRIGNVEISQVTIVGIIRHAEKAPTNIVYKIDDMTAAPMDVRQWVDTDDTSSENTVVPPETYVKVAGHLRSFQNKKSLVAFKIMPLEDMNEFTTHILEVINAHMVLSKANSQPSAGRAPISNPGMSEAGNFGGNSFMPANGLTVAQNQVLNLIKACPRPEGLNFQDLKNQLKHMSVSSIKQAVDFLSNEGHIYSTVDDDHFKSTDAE
T1 sequence (P35244 whole entry partner): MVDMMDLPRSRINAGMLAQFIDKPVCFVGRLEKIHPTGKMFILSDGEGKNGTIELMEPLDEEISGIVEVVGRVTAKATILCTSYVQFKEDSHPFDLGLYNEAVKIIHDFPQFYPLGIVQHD

EcSSB = molecular target: T2, EcSSB (Escherichia coli, UniProt P0AGE0); assay: E. coli SSB DNA-binding EMSA; conditions: 0-200 μM, pre-incubated with protein
T2 construct: purchased Enzymatics, Beverly, Mass
T2 sequence (P0AGE0 2-178): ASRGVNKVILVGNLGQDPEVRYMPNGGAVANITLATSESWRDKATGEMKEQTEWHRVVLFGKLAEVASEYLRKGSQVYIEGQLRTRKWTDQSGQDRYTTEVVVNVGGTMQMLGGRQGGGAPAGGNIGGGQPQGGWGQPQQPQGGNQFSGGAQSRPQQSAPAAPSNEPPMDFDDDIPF
Protocol: In order to study the specificity of the CheSS19, and MCI13E/F compounds, their effects on two ssDNA binding proteins which use OB-folds for recognition and binding of ssDNA, E. coli SSB (6) and the Schizosaccharomyces pombe Pot1(DBD) domain (11) were studied. The EcSSB protein is a non-sequence-specific ssDNA binding protein, whereas the SpPot1(DBD) protein is a telomere-specific, ssDNA binding protein. In these experiments, protein was pre-incubated with the SMIs, as was done for the RPA experiments, prior to addition of radiolabeled ssDNA to the reactions.
Referring now to FIG. 6B. CheSS19 titration in EcSSB DNA-binding reactions. CheSS19 (0, 25, 50, 100, and 200 μM) was pre-incubated with EcSSB and binding reactions were carried out. Referring now to FIG. 6C. Titration of MCI13E and MCI13F in EcSSB DNA-binding reactions. Concentrations of MCI13E/F used were: 0, 25, 50, 100, and 200 μM. In all panels, the ‘Free’ ssDNA is indicated with an arrow and the ‘Bound’ ssDNA is indicated by brackets. All reactions were performed in the same order and manner as the RPA binding reactions. EcSSB binding was unaffected by CheSS19 and the MCI13E and MCI13F compounds […].
EMSAs were performed similarly to those for the RPA constructs, with the following exceptions. Reactions contained 25 nM of 5′-[^32P]-labeled 3Pc3 ssDNA and 3.3 nM (assuming homotetramer formation) SSB protein (Enzymatics, Beverly, Mass.). Reactions (20 μL) were carried out in 20 mM HEPES, pH 7.5, 1 mM DTT, 0.01% NP-40, 100 mM NaCl, and resolved by 6% native polyacrylamide gel electrophoresis at 25 mA for 2 hours. Gels were dried and quantified via phosphorimager analysis and ImageQuant software (Molecular Dynamics).

RPA DBD-A/B [2] = molecular target: T3, RPA DBD-A/B (Homo sapiens, UniProt P27694); assay: EMSA DNA binding assay, RPA DBD-A/B construct
T3 construct: made in house; host or cells: E. coli BL21(DE3)
T3 sequence (P27694 181-422 limits assumed): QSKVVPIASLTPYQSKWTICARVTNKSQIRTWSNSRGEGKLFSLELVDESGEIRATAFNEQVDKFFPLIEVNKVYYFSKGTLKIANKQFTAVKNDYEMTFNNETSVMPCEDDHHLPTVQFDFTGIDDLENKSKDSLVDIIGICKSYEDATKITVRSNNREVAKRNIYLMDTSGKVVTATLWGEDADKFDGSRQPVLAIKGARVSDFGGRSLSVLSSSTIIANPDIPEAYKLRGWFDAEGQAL
Protocol: DBD-A/B. The sequence encoding the RPA p70 DNA binding domains A and B were subcloned from the hrRPA plasmid (provided by Dr. Marc Wold, University of Iowa) into the pET15b (Novagen) vector and the protein was expressed in BL21(DE3) cells (Stratagene) as previously described. Briefly, cells were grown to an OD600 of 0.8, induced with 0.5 mM isopropyl-1-thio-β-D-galactopyranoside (IPTG) at 37° C. for 2-3 hours. Small scale DBD-A/B preparations were obtained from 1 L cultures and following induction, cells were harvested by centrifugation at 700×g for 30 minutes at 4° C. The pellets were suspended in Buffer A (20 mM Tris, pH 7.5, 10% glycerol, 500 mM NaCl, 10 mM β-mercaptoethanol (BME) and 1 μg/mL phenylmethanesulfonylfluoride (PMSF), leupeptin and pepstatin) at 1 mL/gram of cells. The cells were lysed by sonication and insoluble material sedimented at 15,000×g for 30 minutes at 4° C. The supernatant was then loaded onto a 10 mL phosphocellulose column, equilibrated with Buffer A, and the flow-through material collected. Imidazole was added to 5 mM to the flow through which was then loaded onto a 2 mL nickel-NTA-agarose column. The column was then washed with Buffer A containing 50 mM imidazole after which protein was eluted from the column using a gradient from 50-500 mM imidazole. Fractions were analyzed for protein content using Bradford and SDS-PAGE analysis in addition to assessment of DNA binding activity as determined by anisotropy. Fractions containing the DBD-A/B protein were pooled and dialyzed overnight in Buffer B (1 mM HEPES, pH 7.2, 10 mM dithiothreitol (DTT), 50 mM NaCl and 1 μg/mL PMSF, pepstatin and leupeptin) and aliquots stored at −80° C.
RPA and DBD-A/B Binding. EMSAs were performed as previously described (22) using a 30-base purine rich ssDNA substrate (3Pc3). […] Gels were dried and quantified via phosphorimager analysis and ImageQuant software (Molecular Dynamics).

[3] = molecular target: T1, full-length heterotrimeric RPA; assay: EMSA in vitro DNA binding assay, full-length heterotrimeric RPA; conditions: ssDNA substrate
Protocol: RPA. Human full-length, un-tagged heterotrimeric RPA (RPA) was purified as previously describe.
RPA and DBD-A/B Binding. EMSAs were performed as previously described (22) using a 30-base purine rich ssDNA substrate (3Pc3). Briefly, reactions contained 12.5 nM 5′-[^32P]-labeled 3Pc3 ssDNA and the indicated concentrations of RPA or DBD-A/B. Protein was pre-incubated with the indicated concentration of SMI for 30 minutes at 37° C. DNA was then added and reactions incubated for an additional 5 minutes at room temperature in a final reaction volume of 40 μL. Reactions were then resolved on a 6% native polyacrylamide gel and electrophoresed at 170 volts for 1 hour. Gels were dried and quantified via phosphorimager analysis and ImageQuant software (Molecular Dynamics).

RPA DBD-A/B [4] = molecular target: T3, RPA DBD-A/B; assay: Reversibility of DBD-A/B inhibition: dialysis, then fluorescence polarization; format: binding; conditions: overnight dialysis, then FP with F-dT12
Protocol: In an experiment reported herein, DBD-A/B was incubated with CheSS19 and then the reaction mix dialyzed overnight to remove dissociable inhibitor. […] Referring now to FIG. 3D. Bar graph showing results of fluorescence polarization analysis of CheSS19 inactivated RPA DBD-A/B. Referring now to FIG. 3D, RPA DBD-A/B was pre-incubated with vehicle (1% DMSO) or CheSS19 (1 pmol in 1% DMSO) for 30 minutes at 37° C. Following incubation, the reaction mix was dialyzed versus H1 buffer overnight at 4° C. The protein was recovered and DNA binding activity measured by FP analysis of binding to an F-dT12 substrate was performed as described in “Methods”. Bar 1, DNA control, Bar 2, control vehicle treated DBD-A/B, Bar 3, Chess19 treated DBD-A/B. The data represent the mean and range of two independent experiments.
Fluorescence polarization experiments were preformed as previously described (21). SMIs were diluted in H1 buffer (10 mM HEPES, pH 7.2, 1 mM DTT, 0.01% NP-40 and 100 mM NaCl) and the final DMSO concentration was kept below 1%.
In order to assess the reversibility of select SMIs, the indicated SMI was pre-incubated with RPA or the DBD-A/B construct for 30 minutes at room temperature. […] The resulting protein was recovered and concentration determined by Bradford analysis. […]

[5] = test system: NSCLC cell lines A549 and H460; conditions: reference 1; cited from earlier work
p21 = assay: Quantitative real-time PCR of p21 mRNA; format: cell-based; conditions: A549, versus untreated control
Protocol: Real-Time PCR—A549 cells were plated in 10 cm dishes at 1.5×10^6, allowed to adhere, and treated for 24-48 hours with cisplatin or SMIs (5 μM). Referring now to FIG. 16B, Western blot of cells treated sequentially. For sequential treatment, A549 cells were exposed to cisplatin for 24 hours followed by the addition of SMIs for another 24 hours as above. Referring now to FIG. 16A, A549 cells were treated sequentially or concurrently with cisplatin (5 μM) and MCI13E or MCI13F for 24 total hours. Lysates were probed for p53-ser15-phosphorylation or phosphorylated-ATM. GAPDH was probed as a loading control. Concurrently treated cells were incubated simultaneously with both cisplatin and MCIs for 24 hours. RNA was extracted using RNeasy minikit (Qiagen, Germantown, Md.) per manufacturer's protocol. cDNA was generated using Applied Biosystem's (ABI) High Capacity RNA-to-cDNA kit. Validated gene primer/probe sets, also from ABI, were used for Quantitative Real Time-PCR. ABI's ΔΔCT Relative Quantification methodology was used for the analyses (applied Biosystems). Data were normalized to the housekeeping gene GAPDH and calibrated to the mock treated samples. Results presented are the average of two separate cell treatments/RNA isolations with duplicate Taqman Assays per RNA sample set.
Referring now to FIG. 15A. Plot of Quantitative Real Time PCR analyses of mRNA expression changes of A549 cells treated with MCI13E, MCI13F and Cisplatin. Data represents the average of four separate Q-RT PCR Assays. Genes of interest were normalized to GAPDH transcript levels, and are presented as fold changes relative to untreated cell samples. Cisplatin treatment increases transcription of DDB2 (A). Referring now to FIG. 15B. Bar graph of P21/GAPDH measured in cells subjected to different treatment schemes. Referring now to FIG. 15C. Bar graph of XPC/GAPDH measured under different treatment regimes XPC Concurrent MCI/Cisplatin treated cells show a decrease in gene transcription when compared to cells treated with Cisplatin alone (24 hour).

Compound: O=C1OC(=O)[C@H]2C3C=CC(CC3)[C@@H]12 [CheSS19]
- Reversibility of full-length RPA inhibition (earlier report) [1]: irreversible
- Effect on EcSSB ssDNA binding (EcSSB): unaffected
- Inhibition of DBD-A/B DNA binding (RPA DBD-A/B [2]): potent inhibitory activity; also recorded: inhibits the DNA binding activity of the DBD-A/B construct with similar potency to the heterotrimeric RPA preparation
- Inhibition of full-length RPA DNA binding [3]: potent inhibitory activity
- Reversibility of DBD-A/B inhibition (RPA DBD-A/B [4]): inhibiting DBD-A/B in an irreversible manner

Compound: CCOc1ccc2cc(C3CC(c4ccc(Br)cc4)=NN3C(=O)CCC(=O)O)c(Cl)nc2c1 (stereo not shown) [TDRL-505]
- Mode of cell death (earlier report) [5]: cytotoxic via a non-apoptotic pathway

Compound: N.N.[Cl][Pt][Cl] [cisplatin, cis-diamminedichloroplatinum (II)]
- p21 mRNA expression, single agent (p21): dramatic increase in p21 mRNA expression
